Experimental findings from US20190119204A1, “ROR GAMMA (RORy) MODULATORS” (Lead Pharma Holding B.V., priority 2016, published 2019) are described below.

For the test, the target named is T1, CYP3A4 (Homo sapiens, UniProt P08684).
T1 construct: containing human liver microsomes (0.1 mg/mL); from tissue; host or cells: human liver microsomes
The experiment in a line: CYP3A4 inhibition assay. It is filed as in vitro ADME. As to conditions: human liver microsomes. How it is done: In the CYP3A4 inhibition assay, in vitro IC50 of a test compound as direct inhibitor against CYP3A4 is determined, by measuring the inhibition of the turn-over of probe substrates of CYP3A4 (Midazolam and Testosterone) to their specific metabolites i.e., 1′-Hydroxymidazolam, 6β-Hydroxytestosterone, in human liver microsomes.
Examples 2-3 of the present application and example No.37 from WO2015/082533 were tested for CYP3A4 inhibition using two different probes: midazolam and testosterone.
Test compound dissolved in DMSO at selected concentrations was added to a phosphate buffer (50 mM, pH 7.4) containing human liver microsomes (0.1 mg/mL), MgCl (6 mM) and EDTA (0.5 mM) and CYP3A probe substrate, either midazolam (3 μM). Test compound was evaluated at the concentrations 1, 3, 10 and 30 μM and the final DMSO concentration in the incubation was 0.5%. After addition of […] NADPH the mixture was incubated at 37° C. for 10 min (midazolam) or 30 min (testosterone). The reaction was terminated by addition of cold CH3CN containing internal standard, centrifuged and formation of the CYP3A specific metabolite (either 1′-hydroxymidazolam or 6-β-hydroxytestosterone) was quantified by UPLC-MS/MS. The relative CYP3A activity at each test concentration was calculated and IC50 values determined using XLfit.

Where [1] appears, read: midazolam probe, read-out: CYP3A4 inhibition Assay IC50, Midazolam probe.
[2] abbreviates: testosterone probe, read-out: CYP3A4 inhibition Assay IC50, Testosterone probe.

Read-outs that look alike come from different tables or passages of the source.

T1 sequence (P08684 whole entry): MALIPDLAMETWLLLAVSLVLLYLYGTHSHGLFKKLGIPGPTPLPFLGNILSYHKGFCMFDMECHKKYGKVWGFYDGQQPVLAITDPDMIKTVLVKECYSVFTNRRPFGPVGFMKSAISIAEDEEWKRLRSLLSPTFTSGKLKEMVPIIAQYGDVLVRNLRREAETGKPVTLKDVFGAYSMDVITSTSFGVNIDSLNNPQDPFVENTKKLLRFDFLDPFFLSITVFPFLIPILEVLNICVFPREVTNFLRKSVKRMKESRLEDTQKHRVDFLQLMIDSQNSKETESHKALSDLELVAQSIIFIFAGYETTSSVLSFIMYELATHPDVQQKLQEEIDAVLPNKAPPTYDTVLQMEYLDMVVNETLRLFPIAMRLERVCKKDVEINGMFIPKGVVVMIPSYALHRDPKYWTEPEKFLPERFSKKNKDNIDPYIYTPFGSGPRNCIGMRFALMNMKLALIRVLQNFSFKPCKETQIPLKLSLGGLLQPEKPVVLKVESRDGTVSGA

With `O=C(Cc1ccc(S(=O)(=O)CC2CC2)cc1)Nc1ccc([C@@](O)(C(F)F)C(F)(F)F)cc1` [Example 2, (+)-2-[4-(cyclopropylmethylsulfonyl)phenyl]-N-[4-[(1R)-1-(difluoromethyl)-2,2,2-trifluoro-1-hydroxy-ethyl]phenyl]acetamide], the IC50 by setting is: under setting [1], 24 µM; under setting [2], 13 µM.

Regarding `O=C(Cc1ccc(S(=O)(=O)CC2CC2)cc1)Nc1ccc([C@](O)(C(F)F)C(F)(F)F)cc1` [Example 3, (−)-2-[4-(cyclopropylmethylsulfonyl)phenyl]-N-[4-[(1S)-1-(difluoromethyl)-2,2,2-trifluoro-1-hydroxy-ethyl]phenyl]acetamide], the IC50 was greater than 30 µM under setting [1] and 16 µM under setting [2].
